Reference: ChEMBL document CHEMBL6071160, “Identification of a novel 10-hydroxyevodiamine prodrug as a potent topoisomerase inhibitor with improved aqueous solubility for treatment of hepatocellular carcinoma” (Eur J Med Chem, 2024)
The source made the active and inactive calls. The calls are words filed in the database; no cut-off is given here.

Key:
SK-HEP1 [1] = assay: Induction of apoptosis in human SK-HEP1 cells assessed as necrotic cells at 80 nM measured after 24 hrs by Annexin-V-FITC/PI analysis (reference value: 0.70%); assay type: functional
Huh-7 [2] = assay: Induction of apoptosis in human Huh-7 cells assessed as ROS generation by measuring DCFH2-DA stained cells at 80 nM measured after 24 hrs […] (reference value: 0.45%); assay type: functional
SK-HEP1 [3] = assay: Induction of apoptosis in human SK-HEP1 cells assessed as viable cells at 40 nM measured after 24 hrs by Annexin-V-FITC/PI analysis (reference value: 97.20%); assay type: functional; conditions: read-out: Activity
SK-HEP1 [4] = assay: Induction of cell cycle arrest in human SK-HEP1 cells assessed as accumulation of cells at G2 phase 20 nM measured after 24 hrs by flow cytometric assay (reference value: 22.41%); assay type: functional
Huh-7 [5] = assay: Induction of cell cycle arrest in human Huh-7 cells assessed as accumulation of cells at G1 phase 80 nM measured after 24 hrs by flow cytometric assay (reference value: 63.01%); assay type: functional
Huh-7 [6] = assay: Induction of cell cycle arrest in human Huh-7 cells assessed as accumulation of cells at G1 phase 40 nM measured after 24 hrs by flow cytometric assay (reference value: 63.01%); assay type: functional
Huh-7 [7] = assay: Induction of apoptosis in human Huh-7 cells assessed as late apoptotic cells at 80 nM measured after 24 hrs by Annexin-V-FITC/PI analysis (reference value: 1.23%); assay type: functional
SK-HEP1 [8] = assay: Induction of apoptosis in human SK-HEP1 cells assessed as loss of mitochondrial membrane potential by measuring JC-1 stained cells at 20 nM measured after 24 hrs by JC-1 staining based flow cytometry (reference value: 0.49%); assay type: functional
SK-HEP1 [9] = assay: Inhibition of cell migration in human SK-HEP1 cells at 20 nM measured for 24 hrs by scratch wound healing assay; assay type: functional, cell-based
[10] = Toxicity in BALB/c nude mouse subcutaneously injected with human Huh-7 cells assessed as change in body weight at 10 mg/kg, ip administered once daily measured after 14 days; assay type: organism-based; conditions: in vivo, 336 h, time 14 day
Huh-7 [11] = assay: Inhibition of cell migration in human Huh-7 cells at 10 nM measured for 24 hrs by scratch wound healing assay; assay type: functional, cell-based
[12] = molecular target: T1, DNA topoisomerase 1 (Homo sapiens) (UniProt P11387); assay: Inhibition of DNA topoisomerase 1 (unknown origin) assessed as relaxation of supercoiled plasmid pBR322 DNA at 25 to 100 uM incubated for 15 mins measured after 30 mins addition of ethidium bromide by agarose gel electrophoresis; conditions: dose 25-100 µM, time 45.0 min
T1 sequence (whole entry): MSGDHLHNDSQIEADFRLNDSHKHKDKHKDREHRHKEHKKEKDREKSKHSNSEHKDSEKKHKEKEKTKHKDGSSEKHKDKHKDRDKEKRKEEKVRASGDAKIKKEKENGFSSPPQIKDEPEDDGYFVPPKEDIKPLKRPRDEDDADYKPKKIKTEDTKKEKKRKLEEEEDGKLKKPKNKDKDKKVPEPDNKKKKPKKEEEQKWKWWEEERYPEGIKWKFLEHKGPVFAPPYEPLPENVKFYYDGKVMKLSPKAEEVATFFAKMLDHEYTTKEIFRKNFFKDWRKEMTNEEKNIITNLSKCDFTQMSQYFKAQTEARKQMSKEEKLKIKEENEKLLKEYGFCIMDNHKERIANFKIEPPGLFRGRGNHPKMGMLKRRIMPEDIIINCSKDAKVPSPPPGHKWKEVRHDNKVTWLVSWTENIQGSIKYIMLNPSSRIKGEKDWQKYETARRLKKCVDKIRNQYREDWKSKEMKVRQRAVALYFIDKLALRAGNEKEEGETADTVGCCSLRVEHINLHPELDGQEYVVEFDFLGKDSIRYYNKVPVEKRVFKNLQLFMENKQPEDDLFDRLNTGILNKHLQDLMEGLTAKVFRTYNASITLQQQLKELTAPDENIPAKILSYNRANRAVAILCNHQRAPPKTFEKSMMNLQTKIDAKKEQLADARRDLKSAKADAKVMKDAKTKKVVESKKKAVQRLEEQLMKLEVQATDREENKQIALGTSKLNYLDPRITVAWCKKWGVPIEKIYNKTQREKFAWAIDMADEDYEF

SMMC-7721 = assay: Antiproliferative activity against human SMMC-7721 cells assessed as inhibition of cell proliferation incubated for 72 hrs by MTT assay; assay type: functional, cell-based; conditions: SMMC-7721, 72 h
[13] = Toxicity in BALB/c nude mouse subcutaneously injected with human Huh-7 cells assessed as changes in spleen tissue at 10 mg/kg, ip administered once daily measured after 14 days by H and E staining based assay; assay type: organism-based; conditions: in vivo, 336 h, time 14 day
[14] = Toxicity in BALB/c nude mouse subcutaneously injected with human Huh-7 cells assessed as animal death at 40 mg/kg, ip administered once daily measured after 14 days; assay type: organism-based; conditions: in vivo, 336 h, time 14 day
[15] = Toxicity in BALB/c nude mouse subcutaneously injected with human Huh-7 cells assessed as changes in kidney tissue at 10 mg/kg, ip administered once daily measured after 14 days by H and E staining based assay; assay type: organism-based; conditions: in vivo, 336 h, time 14 day
[16] = Toxicity in BALB/c nude mouse subcutaneously injected with human Huh-7 cells assessed as change in platelet level at 10 mg/kg, ip administered once daily measured after 14 days; assay type: organism-based; conditions: in vivo, 336 h, time 14 day
Huh-7 [17] = assay: Inhibition of cell invasion in human Huh-7 cells assessed as decrease in number of cells migration into lower compartment at 10 nM measured after 24 hrs by transwell assay; assay type: functional, cell-based
Huh-7 [18] = assay: Induction of apoptosis in human Huh-7 cells assessed as loss of mitochondrial membrane potential by measuring JC-1 stained cells at 20 nM measured after 24 hrs by JC-1 staining based flow cytometry (reference value: 2.27%); assay type: functional
SK-HEP1 [19] = assay: Induction of cell cycle arrest in human SK-HEP1 cells assessed as accumulation of cells at G1 phase 40 nM measured after 24 hrs by flow cytometric assay (reference value: 47.55%); assay type: functional
Huh-7 [20] = assay: Induction of apoptosis in human Huh-7 cells assessed as early apoptotic cells at 40 nM measured after 24 hrs by Annexin-V-FITC/PI analysis (reference value: 1.04%); assay type: functional
Huh-7 [21] = assay: Inhibition of cell migration in human Huh-7 cells at 40 nM measured for 24 hrs by scratch wound healing assay; assay type: functional, cell-based
[22] = Toxicity in BALB/c nude mouse subcutaneously injected with human Huh-7 cells assessed as changes in heart tissue at 10 mg/kg, ip administered once daily measured after 14 days by H and E staining based assay; assay type: organism-based; conditions: in vivo, 336 h, time 14 day
[23] = Chemical stability of compound at pH 4.6 assessed as residual rate measured after 2 days; assay type: physicochemical; conditions: buffer, time 2 day, read-out: Stability
[24] = Toxicity in BALB/c nude mouse subcutaneously injected with human Huh-7 cells assessed as animal death at 10 to 20 mg/kg, ip administered once daily measured after 14 days; assay type: organism-based; conditions: in vivo, 336 h, dose 10-20 mg/kg, time 14 day
NCI-H1703 = assay: Antiproliferative activity against human NCI-H1703 cells assessed as decrease in EdU positive cells measured after 24 hrs by Edu incorporation based fluorescence microscopic analysis; assay type: functional, cell-based; conditions: dose 10-40 nM

In the case of `C[N+](C)(C)CCC(=O)Oc1ccc2[nH]c3c(c2c1)CCN1C(=O)c2cc(F)cc(F)c2N(c2cccc(F)c2)C31.[I-]` (stereo unspecified), the Activity (SK-HEP1 [1]) is reported as 1.15%, the Activity (Huh-7 [2]) is reported as 17.92% and the viability at 0.04 µM (SK-HEP1 [3]) is reported as 93.1%. It also gave an Activity (SK-HEP1 [4]) of 23.61%, an Activity (Huh-7 [5]) of 6.79% and an Activity (Huh-7 [6]) of 66.98%. The Activity (Huh-7 [7]) was 11.64%, the Activity (SK-HEP1 [8]) was 0.78% and the inhibition (SK-HEP1 [9]) was “Active”. The Activity [10] was “Non-Toxic”, the inhibition (Huh-7 [11]) was “Active” and the inhibition [12] was “Active”. The IC50 (SMMC-7721) was 90 nM, the Activity [13] was “Non-Toxic” and the Activity [14] was “Toxic”. The Activity [15] was “Non-Toxic”, the Activity [16] was “Non-Toxic” and the inhibition (Huh-7 [17]) was “Active”. It also gave an Activity (Huh-7 [18]) of 2.23%, an Activity (SK-HEP1 [19]) of 43.86% and an Activity (Huh-7 [20]) of 2.84%. The inhibition (Huh-7 [21]) was “Active”, the Activity [22] was “Non-Toxic” and the remaining at 48 h [23] was 63.1%. For the same molecule, the Activity [24] was “Non-Toxic” and the Activity (NCI-H1703) was “Dose-Dependent Effect”.
